Key:
Type in all cases: in vivo
[1] = test system: Echinochloa crus-galli var. crus-galli; assay: Test Example 5: herbicidal effect by foliage application, plastic box (symbol H); conditions: 320 g/ha, 3 weeks after application
Outline: (§1)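 Sowing in sterilized diluvial soil, 14 days' greenhouse growth at 25° C. to 30° C., then uniform small-sprayer foliar application of aqueous emulsion dilution; plants scored three weeks afterwards.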

Scirpus juncoides [2] = assay: Test Example 2: herbicidal activity, application during weed generation in submerged conditions (symbol B); conditions: Table 23; application herbicide amount 320 g/ha; grade 0-5 by criteria of Test Example 1
Outline: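 Weeds emerging under flooded conditions were treated with compound formulated as an emulsion and diluted with water to the intended herbicide amount, poured onto the surface of 4 cm standing water. Seeds had been co-sown in alluvial soil; plants grew at 25° C. to 30° C. and were assessed after 3 weeks.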

transplanted rice plant = assay: Test Example 1: effect on crop, application before weed generation in submerged conditions (symbol a); conditions: application herbicide amount 320 g/ha
Outline: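 Alluvial soil pots flooded to 4 cm water, sown with Echinochloa oryzacola, Scirpus juncoides and Monochoria vaginalis, then transplanted with 2.5 leaf stage rice seedlings; pre-emergence application. Greenhouse 25° C. to 30° C.; scored 0–5 by herbicidal ratio 3 weeks after application.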

beet = assay: Test Example 4: effect on crop by soil treatment (symbol f); conditions: 320 g/ha
Outline: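 Grown at 25° C. to 30° C. in a greenhouse, the crops came from seed sown spot-wise in sterilized diluvial soil under roughly 1.5 cm of covering soil.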

Alopecurus myosuroides [3] = assay: Test Example 5: herbicidal effect by foliage application, plastic box (symbol J); conditions: 320 g/ha, 3 weeks after application
Outline: as §1

[4] = test system: Echinochloa oryzacola Vasing.; assay: Test Example 1: herbicidal activity, application before weed generation in submerged conditions (symbol A); conditions: application herbicide amount 320 g/ha
Outline: (§2)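 Paddy pre-emergence test. Formulated emulsion, water-diluted to a predetermined rate, is applied to floodwater on sowing day; rice transplanted at 2.5 leaves. Effect read at 3 weeks on a 0–5 herbicidal-ratio scale.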

Alopecurus myosuroides [5] = assay: Test Example 4: herbicidal effect by soil treatment (symbol J); conditions: 320 g/ha
Outline: (§3)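 Seeds were sown in sterilized diluvial soil, covered with about 1.5 cm of soil, and the soil surface was sprayed with a water-diluted emulsion of the compound at a predetermined rate. Plants grew in a greenhouse at 25° C. to 30° C.; effects were scored visually 3 weeks after application.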

Monochoria vaginalis = assay: Test Example 1: herbicidal activity, application before weed generation in submerged conditions (symbol C); conditions: application herbicide amount 320 g/ha
Outline: as §2

Setaria viridis = assay: Test Example 4: herbicidal effect by soil treatment (symbol G); conditions: 320 g/ha
Outline: as §3

soybean = assay: Test Example 5: effect on crop by foliage application, plastic box (symbol d); conditions: 320 g/ha, 3 weeks after application
Outline: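 Crop seed is sown alongside grass and broadleaf weed species in spots in sterilized diluvial soil, then covered to a depth of about 1.5 cm. Plants grow in a greenhouse kept at 25° C. to 30° C.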

Chenopodium album = assay: Test Example 4: herbicidal effect by soil treatment (symbol O); conditions: 320 g/ha
Outline: as §3

Scirpus juncoides [6] = assay: Test Example 1: herbicidal activity, application before weed generation in submerged conditions (symbol B); conditions: application herbicide amount 320 g/ha
Outline: as §2

COCCOC(=O)OC1=C(c2c(C)cc(C)cc2C)C(=O)C(CC(C)=NOC)C1 (stereo not drawn) [1-147]
H: Echinochloa crus-galli var. crus-galli, herbicidal effect (criteria 0-5) [1]: 5 (Herbicidal ratio of 90% or more (almost completely withered))
Herbicidal effect grade, B: Scirpus juncoides (Scirpus juncoides [2]): 5 (Herbicidal ratio of 90% or more (almost completely withered))
Effect grade on crop, a: transplanted rice plant (transplanted rice plant): 5 (Herbicidal ratio of 90% or more (almost completely withered))
f: beet, effect grade on crop (beet): 0 (Herbicidal ratio of 5% or lower (almost no effect))
J: Alopecurus myosuroides, herbicidal effect (criteria 0-5) (Alopecurus myosuroides [3]): 5 (Herbicidal ratio of 90% or more (almost completely withered))
Herbicidal effect grade, A: Echinochloa oryzacola Vasing. [4]: 5 (Herbicidal ratio of 90% or more (almost completely withered))
J: Alopecurus myosuroides, herbicidal effect grade (Alopecurus myosuroides [5]): 5 (Herbicidal ratio of 90% or more (almost completely withered))
Herbicidal effect grade, C: Monochoria vaginalis (Monochoria vaginalis): 1 (Herbicidal ratio of 5% or higher and lower than 20%)
G: Setaria viridis, herbicidal effect grade (Setaria viridis): 5 (Herbicidal ratio of 90% or more (almost completely withered))
d: soybean, effect on crop (criteria 0-5) (soybean): 3 (Herbicidal ratio of 40% or higher and lower than 70%)
O: Chenopodium album, herbicidal effect grade (Chenopodium album): 0 (Herbicidal ratio of 5% or lower (almost no effect))
Herbicidal effect grade, B: Scirpus juncoides (Scirpus juncoides [6]): 5 (Herbicidal ratio of 90% or more (almost completely withered))

CON=C(C)CC1CC(OC(=O)C(C)(C)c2ccc(Cl)cc2)=C(c2c(C)cc(C)cc2C)C1=O (stereo not drawn) [1-148]
H: Echinochloa crus-galli var. crus-galli, herbicidal effect (criteria 0-5) [1]: 5 (Herbicidal ratio of 90% or more (almost completely withered))
Herbicidal effect grade, B: Scirpus juncoides (Scirpus juncoides [2]): 4 (Herbicidal ratio of 70% or higher and lower than 90%)
Effect grade on crop, a: transplanted rice plant (transplanted rice plant): 5 (Herbicidal ratio of 90% or more (almost completely withered))
f: beet, effect grade on crop (beet): 0 (Herbicidal ratio of 5% or lower (almost no effect))
J: Alopecurus myosuroides, herbicidal effect (criteria 0-5) (Alopecurus myosuroides [3]): 5 (Herbicidal ratio of 90% or more (almost completely withered))
Herbicidal effect grade, A: Echinochloa oryzacola Vasing. [4]: 5 (Herbicidal ratio of 90% or more (almost completely withered))
J: Alopecurus myosuroides, herbicidal effect grade (Alopecurus myosuroides [5]): 5 (Herbicidal ratio of 90% or more (almost completely withered))
Herbicidal effect grade, C: Monochoria vaginalis (Monochoria vaginalis): 3 (Herbicidal ratio of 40% or higher and lower than 70%)
G: Setaria viridis, herbicidal effect grade (Setaria viridis): 5 (Herbicidal ratio of 90% or more (almost completely withered))
d: soybean, effect on crop (criteria 0-5) (soybean): 3 (Herbicidal ratio of 40% or higher and lower than 70%)
O: Chenopodium album, herbicidal effect grade (Chenopodium album): 0 (Herbicidal ratio of 5% or lower (almost no effect))
Herbicidal effect grade, B: Scirpus juncoides (Scirpus juncoides [6]): 4 (Herbicidal ratio of 70% or higher and lower than 90%)

CON=C(C)CC1CC(OC(=O)c2ccc(C(F)(F)F)cc2)=C(c2c(C)cc(C)cc2C)C1=O (stereo not drawn) [1-149]
H: Echinochloa crus-galli var. crus-galli, herbicidal effect (criteria 0-5) [1]: 5 (Herbicidal ratio of 90% or more (almost completely withered))
Herbicidal effect grade, B: Scirpus juncoides (Scirpus juncoides [2]): 4 (Herbicidal ratio of 70% or higher and lower than 90%)
Effect grade on crop, a: transplanted rice plant (transplanted rice plant): 5 (Herbicidal ratio of 90% or more (almost completely withered))
f: beet, effect grade on crop (beet): 0 (Herbicidal ratio of 5% or lower (almost no effect))
J: Alopecurus myosuroides, herbicidal effect (criteria 0-5) (Alopecurus myosuroides [3]): 5 (Herbicidal ratio of 90% or more (almost completely withered))
Herbicidal effect grade, A: Echinochloa oryzacola Vasing. [4]: 5 (Herbicidal ratio of 90% or more (almost completely withered))
J: Alopecurus myosuroides, herbicidal effect grade (Alopecurus myosuroides [5]): 5 (Herbicidal ratio of 90% or more (almost completely withered))
Herbicidal effect grade, C: Monochoria vaginalis (Monochoria vaginalis): 1 (Herbicidal ratio of 5% or higher and lower than 20%)
G: Setaria viridis, herbicidal effect grade (Setaria viridis): 5 (Herbicidal ratio of 90% or more (almost completely withered))
d: soybean, effect on crop (criteria 0-5) (soybean): 2 (Herbicidal ratio of 20% or higher and lower than 40%)
O: Chenopodium album, herbicidal effect grade (Chenopodium album): 0 (Herbicidal ratio of 5% or lower (almost no effect))
Herbicidal effect grade, B: Scirpus juncoides (Scirpus juncoides [6]): 5 (Herbicidal ratio of 90% or more (almost completely withered))

CON=C(C)CC1CC(OC(=O)N2CCCC2)=C(c2c(C)cc(C)cc2C)C1=O (stereo not drawn) [1-150]
H: Echinochloa crus-galli var. crus-galli, herbicidal effect (criteria 0-5) [1]: 5 (Herbicidal ratio of 90% or more (almost completely withered))
Herbicidal effect grade, B: Scirpus juncoides (Scirpus juncoides [2]): 3 (Herbicidal ratio of 40% or higher and lower than 70%)
Effect grade on crop, a: transplanted rice plant (transplanted rice plant): 5 (Herbicidal ratio of 90% or more (almost completely withered))
f: beet, effect grade on crop (beet): 0 (Herbicidal ratio of 5% or lower (almost no effect))
J: Alopecurus myosuroides, herbicidal effect (criteria 0-5) (Alopecurus myosuroides [3]): 5 (Herbicidal ratio of 90% or more (almost completely withered))
Herbicidal effect grade, A: Echinochloa oryzacola Vasing. [4]: 5 (Herbicidal ratio of 90% or more (almost completely withered))
J: Alopecurus myosuroides, herbicidal effect grade (Alopecurus myosuroides [5]): 5 (Herbicidal ratio of 90% or more (almost completely withered))
Herbicidal effect grade, C: Monochoria vaginalis (Monochoria vaginalis): 0 (Herbicidal ratio of 5% or lower (almost no effect))
G: Setaria viridis, herbicidal effect grade (Setaria viridis): 0 (Herbicidal ratio of 5% or lower (almost no effect))
d: soybean, effect on crop (criteria 0-5) (soybean): 0 (Herbicidal ratio of 5% or lower (almost no effect))
O: Chenopodium album, herbicidal effect grade (Chenopodium album): 0 (Herbicidal ratio of 5% or lower (almost no effect))
Herbicidal effect grade, B: Scirpus juncoides (Scirpus juncoides [6]): 3 (Herbicidal ratio of 40% or higher and lower than 70%)

CON=C(C)CC1CC(OC(=O)N2CCN(C)CC2)=C(c2c(C)cc(C)cc2C)C1=O (stereo not drawn) [1-152]
H: Echinochloa crus-galli var. crus-galli, herbicidal effect (criteria 0-5) [1]: 5 (Herbicidal ratio of 90% or more (almost completely withered))
Herbicidal effect grade, B: Scirpus juncoides (Scirpus juncoides [2]): 0 (Herbicidal ratio of 5% or lower (almost no effect))
Effect grade on crop, a: transplanted rice plant (transplanted rice plant): 2 (Herbicidal ratio of 20% or higher and lower than 40%)
f: beet, effect grade on crop (beet): 0 (Herbicidal ratio of 5% or lower (almost no effect))
J: Alopecurus myosuroides, herbicidal effect (criteria 0-5) (Alopecurus myosuroides [3]): 5 (Herbicidal ratio of 90% or more (almost completely withered))
Herbicidal effect grade, A: Echinochloa oryzacola Vasing. [4]: 4 (Herbicidal ratio of 70% or higher and lower than 90%)
J: Alopecurus myosuroides, herbicidal effect grade (Alopecurus myosuroides [5]): 3 (Herbicidal ratio of 40% or higher and lower than 70%)
Herbicidal effect grade, C: Monochoria vaginalis (Monochoria vaginalis): 0 (Herbicidal ratio of 5% or lower (almost no effect))
G: Setaria viridis, herbicidal effect grade (Setaria viridis): 0 (Herbicidal ratio of 5% or lower (almost no effect))
d: soybean, effect on crop (criteria 0-5) (soybean): 1 (Herbicidal ratio of 5% or higher and lower than 20%)
O: Chenopodium album, herbicidal effect grade (Chenopodium album): 0 (Herbicidal ratio of 5% or lower (almost no effect))
Herbicidal effect grade, B: Scirpus juncoides (Scirpus juncoides [6]): 0 (Herbicidal ratio of 5% or lower (almost no effect))

C=CCN(CC=C)C(=O)OC1=C(c2c(C)cc(C)cc2C)C(=O)C(CC(C)=NOC)C1 (stereo not drawn) [1-153]
H: Echinochloa crus-galli var. crus-galli, herbicidal effect (criteria 0-5) [1]: 5 (Herbicidal ratio of 90% or more (almost completely withered))
Herbicidal effect grade, B: Scirpus juncoides (Scirpus juncoides [2]): 1 (Herbicidal ratio of 5% or higher and lower than 20%)
Effect grade on crop, a: transplanted rice plant (transplanted rice plant): 4 (Herbicidal ratio of 70% or higher and lower than 90%)
f: beet, effect grade on crop (beet): 0 (Herbicidal ratio of 5% or lower (almost no effect))
J: Alopecurus myosuroides, herbicidal effect (criteria 0-5) (Alopecurus myosuroides [3]): 5 (Herbicidal ratio of 90% or more (almost completely withered))
Herbicidal effect grade, A: Echinochloa oryzacola Vasing. [4]: 5 (Herbicidal ratio of 90% or more (almost completely withered))
J: Alopecurus myosuroides, herbicidal effect grade (Alopecurus myosuroides [5]): 3 (Herbicidal ratio of 40% or higher and lower than 70%)
Herbicidal effect grade, C: Monochoria vaginalis (Monochoria vaginalis): 0 (Herbicidal ratio of 5% or lower (almost no effect))
G: Setaria viridis, herbicidal effect grade (Setaria viridis): 1 (Herbicidal ratio of 5% or higher and lower than 20%)
d: soybean, effect on crop (criteria 0-5) (soybean): 1 (Herbicidal ratio of 5% or higher and lower than 20%)
O: Chenopodium album, herbicidal effect grade (Chenopodium album): 0 (Herbicidal ratio of 5% or lower (almost no effect))
Herbicidal effect grade, B: Scirpus juncoides (Scirpus juncoides [6]): 3 (Herbicidal ratio of 40% or higher and lower than 70%)

CON=C(C)CC1CC(OC(=O)c2ccccc2C(F)(F)F)=C(c2c(C)cc(C)cc2C)C1=O (stereo not drawn) [1-154]
H: Echinochloa crus-galli var. crus-galli, herbicidal effect (criteria 0-5) [1]: 5 (Herbicidal ratio of 90% or more (almost completely withered))
Herbicidal effect grade, B: Scirpus juncoides (Scirpus juncoides [2]): 4 (Herbicidal ratio of 70% or higher and lower than 90%)
Effect grade on crop, a: transplanted rice plant (transplanted rice plant): 5 (Herbicidal ratio of 90% or more (almost completely withered))
f: beet, effect grade on crop (beet): 0 (Herbicidal ratio of 5% or lower (almost no effect))
J: Alopecurus myosuroides, herbicidal effect (criteria 0-5) (Alopecurus myosuroides [3]): 5 (Herbicidal ratio of 90% or more (almost completely withered))
Herbicidal effect grade, A: Echinochloa oryzacola Vasing. [4]: 5 (Herbicidal ratio of 90% or more (almost completely withered))
J: Alopecurus myosuroides, herbicidal effect grade (Alopecurus myosuroides [5]): 5 (Herbicidal ratio of 90% or more (almost completely withered))
Herbicidal effect grade, C: Monochoria vaginalis (Monochoria vaginalis): 2 (Herbicidal ratio of 20% or higher and lower than 40%)
G: Setaria viridis, herbicidal effect grade (Setaria viridis): 5 (Herbicidal ratio of 90% or more (almost completely withered))
d: soybean, effect on crop (criteria 0-5) (soybean): 3 (Herbicidal ratio of 40% or higher and lower than 70%)
O: Chenopodium album, herbicidal effect grade (Chenopodium album): 0 (Herbicidal ratio of 5% or lower (almost no effect))
Herbicidal effect grade, B: Scirpus juncoides (Scirpus juncoides [6]): 4 (Herbicidal ratio of 70% or higher and lower than 90%)
